Results from patent publication US20210145983A1, “METHODS AND COMPOSITIONS OF INHIBITING CSF1R FOR TREATING ALLERGIC INFLAMMATION” (THE BOARD OF TRUSTEES OF THE UNIVERSITY OF ILLINOIS, priority 2018, published 2021).

Legend:
IgE = settings: cited from earlier work
[1] = system: acute DRA induced murine model of asthma; assay: acute DRA induced murine model of asthma; format: in vivo, mouse; settings: 10 mg/kg intraperitoneally on day 10, 12 and 14
Excerpt: B. Experimental Design. DRA triple allergens were delivered via intranasal route as depicted.

Sequence of IgE (P01854 1-426 limits assumed): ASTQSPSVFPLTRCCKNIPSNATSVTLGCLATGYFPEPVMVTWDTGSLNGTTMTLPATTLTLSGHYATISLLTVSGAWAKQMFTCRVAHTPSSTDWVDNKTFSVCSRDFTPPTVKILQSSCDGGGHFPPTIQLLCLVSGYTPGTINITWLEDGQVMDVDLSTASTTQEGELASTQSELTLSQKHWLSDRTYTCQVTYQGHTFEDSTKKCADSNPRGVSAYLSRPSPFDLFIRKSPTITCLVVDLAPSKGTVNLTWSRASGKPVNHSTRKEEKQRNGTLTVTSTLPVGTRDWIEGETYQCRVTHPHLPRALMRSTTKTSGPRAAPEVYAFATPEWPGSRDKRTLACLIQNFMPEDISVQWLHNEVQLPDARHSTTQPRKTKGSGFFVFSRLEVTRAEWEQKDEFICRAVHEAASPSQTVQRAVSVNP

Compound | control of asthma exacerbations (IgE; inner city children already sensitized to cockroach, Busse W W, et al. 2011) | control of seasonal exacerbations (IgE; pre-seasonal treatment, poorly controlled asthmatics, Teach S J, et al. 2015) | Th2 cytokine increase in BAL fluids [1] | allergic lung inflammation (lung pathology) [1] | eosinophil recruitment to BAL fluid [1] | serum IgE rise [1]
omalizumab: a humanized monoclonal anti-IgE antibody | significant benefit | effective | – | – | – | –
FC(F)(F)c1ccc(CNc2ccc(Cc3c[nH]c4ncc(Cl)cc34)cn2)cn1 [PLX3397, 5-((5-chloro-1H-pyrrolo[2,3-b]pyridin-3-yl)methyl)-N-((6-(trifluoromethyl)pyridin-3-yl)methyl)pyridin-2-amine] | – | – | attenuated | markedly reduced | blocked | attenuated
